Data from patent publication US20100173936A1 (priority 2008, published 2010).

Experiments:
Type in all cases: in vivo, human
[1] = Blood pressure in randomized crossover study, Type II diabetes mellitus with hypertension
Description: (§1) Subjects with hypertension requiring therapy were excluded from the study as one of the goals of the study was to measure the anti-inflammatory effects of an ACE inhibitor independently of its blood pressure lowering effects. Subjects on lipid lowering therapy (e.g., statin therapy) at the time of enrollment continued their therapy without change throughout the study. Written informed consent was obtained from all subjects. All subjects were evaluated at the time of enrollment. The subjects received nutritional counseling and were advised to record their weight and calorie counts weekly. A nutritionist was available for counseling throughout the study. Blood samples were drawn before and at the end of therapy at a similar time of day while subjects were fasting. […] After the initial 8 weeks of treatment, there was a 4 week washout period. The subjects then received in a crossover fashion the alternate pharmacological regimen. Allocation concealment was maintained until the end of the study. Pill counts were obtained at the end of the treatment period to determine compliance (13). Subjects were advised to self-administer half of the full dose during the initial 2 days of therapy, after which they were to take the full study dose at the same time each morning. The total study period was 22 weeks. […] Blood pressure was checked with at least three separate measurements that were taken approximately five minutes apart using an Omron sphygmomanometer.

glycosylated hemoglobin = assay: Glycosylated hemoglobin in the diabetic hypertensive crossover study
[2] = Adverse events in the diabetic hypertensive crossover study (cough, angioedema, potassium/creatinine, hypotension)
From the text: as §1, with “subjects.” for “subjects. All subjects were evaluated at the time of enrollment. The subjects received nutritional counseling and were advised to record their weight and calorie counts weekly. A nutritionist was available for counseling throughout the study. Blood samples were drawn before and at the end of therapy at a similar time of day while subjects were fasting.”

urinary albumin = assay: Proteinuria, 24 hour urine collection, standard chemical protein analysis; conditions: versus pretreatment, in words (FIG. 1)
Description: Upon collection of each urine sample, the urine was quickly analyzed, and protein analysis was performed via a standard chemical analysis (Quest Laboratory, Scranton, Pa.).

[3] = Brachial artery reactivity testing (BART), flow-mediated vasodilation, diabetic hypertensive subjects
From the text: Briefly, the subjects were positioned in the supine position with the arm in a comfortable position for imaging the brachial artery. A blood pressure cuff was then placed on the forearm, after which a baseline rest image was acquired. The brachial artery was imaged above the antecubital fossa in the longitudinal plane, and a segment with clear anterior and posterior intimal interfaces between the lumen and vessel wall was selected for continuous 2D gray-scale imaging. Blood flow velocity was estimated by time-averaging the pulsed Doppler velocity signal obtained from a mid-artery sample volume. […] After cuff deflation, the longitudinal image of the artery was recorded continuously from 30 seconds before to 2 minutes after cuff deflation. […] The diameter of the brachial artery was measured from longitudinal images in which the lumen-intima interface was visualized on both the near (anterior) and far (posterior) walls. Once the image for analysis was chosen, the boundaries for diameter measurements were identified manually with electronic calipers (Medical Imaging Application Vascular Tools, Coralville, Iowa), and the average diameter was determined from at least 3 different diameter measurements determined along a segment of the vessel. Brachial artery diameter was measured at the same time in the cardiac cycle by use of electrocardiogram (ECG) gating during image acquisition. […]

leptin = assay: Serum leptin enzyme immunoassay (EIA)
Description: (§2) An aliquot of each sample was then drawn, and an enzyme immunoassay (EIA; Cayman Chemical, Ann Arbor, Mich.) for serum adiponectin and leptin was performed on each sample in triplicate according to well-established protocols (45). A total of 50 μl of serum were used for the analysis. The levels of total serum adiponectin and leptin were determined on a plate reader at an optical density of 420 nm. No interference by quinapril or its metabolites was found in any of the assays.

adiponectin = assay: Serum adiponectin enzyme immunoassay (EIA)
Description: as §2

[4] = HOMA-IR index of insulin resistance
From the text: Without wishing to be bound by any particular theory, it was thought that insulin resistance can play an important role in hyperglycemia in type 2 diabetic subjects, and can eventually induce the development of diabetic microangiopathy (20). Indeed, to achieve glycemic control and prevent these complications, several oral hypoglycemic agents that improve insulin resistance, such as thiazolidinediones and biguanides, have been developed and are currently available clinically (21,22). Furthermore, insulin resistance is proposed to play important roles in the pathogenesis of cardiovascular diseases (23,24), the most common cause of death in diabetic subjects. Therefore, a clinical and epidemiological evaluation was undertaken with the subjects described in Example 1 in order to evaluate insulin resistance simply and accurately in the individual diabetic subjects with hypertension. Many investigators have studied simple surrogate indices of insulin resistance in comparison with the index assessed by euglycemic-hyperinsulinemic clamp (clamp-IR); for example, fasting plasma insulin (25), homeostasis model assessment (HOMA) of insulin resistance (HOMA-IR) (26), and the fasting glucose-to-insulin ratio (27). […]

LDL = LDL oxidation lag time, CuSO4 assay on LDL isolated from treated subjects
From the text: Although, the mechanisms of this damage have yet to be clearly established and may involve the inactivation of nitric oxide (NO) by oxygen-derived free radicals such as superoxide (33), it is clear that this inflammatory response affects the gene expression of regulatory molecules, such as vascular cell adhesion molecule and tumor necrosis factor-alpha (34-36), which in turn promote foam cell formation. In this regard, a reduction in NO levels along with an increase in ox-LDL may function as immunomodulators of the atherosclerotic process (37) and, indeed, recent studies imply that ox-LDL stimulates an immunological response through the formation of autoantibodies, resulting in further damage to the endothelium and acceleration of the atherosclerotic process (38,39). This antibody response may represent a marker for the extent of atherosclerosis seen in individuals. […] The LDL was then oxidized to ox-LDL by an in vitro assay utilizing CuSO4 (52). The lag time indicating the susceptibility of the LDL to oxidize was measured using a spectrophotometer at […] (42). Values were performed in triplicate.

PAI-1 = assay: Serum soluble PAI-1 ELISA in subjects with metabolic syndrome; conditions: after four weeks of therapy, quinapril 20 mg/day, alpha lipoic acid 300 mg/day, from baseline
Description: […] Blood was collected at these time periods, and serum levels of soluble PAI-1 and VCAM-1 were determined using an enzyme-linked immunosorbent assay (ELISA). Further, endothelial function in each of the subjects was also determined by flow mediated dilation (FMD) of the brachial artery, utilizing the high resolution ultrasound technique described herein above.

[5] = diabetic hypertensive subjects, quinapril 40 mg/day, alpha lipoic acid 600 mg/day, 8 weeks
[6] = serum, diabetic hypertensive subjects

CCOC(=O)[C@H](CCc1ccccc1)N[C@@H](C)C(=O)N1Cc2ccccc2C[C@H]1C(=O)O [Quinapril, quinapril]
Diastolic BP [1, 5]: 77.9 ± 10.0 mmHg
Systolic BP ([1]; diabetic hypertensive subjects, quinapril 40 mg/day, alpha lipoic acid 600 mg/day, 8 weeks, mean ± SD): 133.4 ± 11.7 mmHg
change in systolic and diastolic blood pressure after the follow-up period ([1]; versus pretreatment, in words): significant reduction
Glycosylated Hgb (glycosylated hemoglobin; [5]): 7.6 ± 1.5%
change in glycosylated hemoglobin (Hgb) (glycosylated hemoglobin; from pretreatment and between the two treatment arms, in words): no significant change
hypotension (systolic BP less than 100 mm Hg) ([2]; during the study): No subject
rise in serum potassium or creatinine of greater than 20 percent ([2]; number of subjects affected): 1 out of 40
incidence of cough ([2]; quinapril 40 mg/day, alpha lipoic acid 600 mg/day): 14%
angioedema ([2]; throughout the study): No angioedema
ratio of urinary albumin to creatinine (urinary albumin): reduced significantly
urinary albumin (urinary albumin): reduced significantly
increase in flow mediated dilation of the brachial artery as compared to baseline ([3]; at 24 weeks as printed): 59%
flow mediated dilation of the brachial artery ([3]; post-treatment, pretreatment 3.86±0.55 percent): 6.02±0.80%
Leptin (leptin; [6]): 51% of % of pretreatment
serum levels of leptin (leptin; versus pretreatment, in words): significantly reduced
serum levels of adiponectin (adiponectin; over pretreatment, in words): significantly increased
Adiponectin (adiponectin; [6]): 122% of % of pretreatment
serum HOMA-IR ([4]; end of treatment, pretreatment 3.01±0.33 U/ml): 1.83 ± 0.25
reduction in HOMA-IR from pretreatment baseline ([4]; in vivo): 40%
increase of lag time of LDL oxidation from pretreatment (LDL; human, in vivo): 23%
lag time of LDL oxidation, Post-treatment (LDL; post-treatment): 71.0 ± 13.9 s
reduction of serum PAI-1 levels (PAI-1): 22%
